Values quoted from earlier work in patent US9884129B2, “Release of agents from cells” (The Brigham and Women s Hospital, Inc., priority 2009, dated 2018).

System: tumor
Conditions: with neural stem cells modified to produce cytosine deaminase; systemic prodrug

Nc1nc(=O)[nH]cc1F [5-fluorocytosine]
reduction in tumor mass: 80%
